Data set [1] concerns the target T1, COX-1 (Ovis aries, UniProt P05979).
T1 construct: purchased Cayman Chemical Company
T1 sequence (P05979 25-600): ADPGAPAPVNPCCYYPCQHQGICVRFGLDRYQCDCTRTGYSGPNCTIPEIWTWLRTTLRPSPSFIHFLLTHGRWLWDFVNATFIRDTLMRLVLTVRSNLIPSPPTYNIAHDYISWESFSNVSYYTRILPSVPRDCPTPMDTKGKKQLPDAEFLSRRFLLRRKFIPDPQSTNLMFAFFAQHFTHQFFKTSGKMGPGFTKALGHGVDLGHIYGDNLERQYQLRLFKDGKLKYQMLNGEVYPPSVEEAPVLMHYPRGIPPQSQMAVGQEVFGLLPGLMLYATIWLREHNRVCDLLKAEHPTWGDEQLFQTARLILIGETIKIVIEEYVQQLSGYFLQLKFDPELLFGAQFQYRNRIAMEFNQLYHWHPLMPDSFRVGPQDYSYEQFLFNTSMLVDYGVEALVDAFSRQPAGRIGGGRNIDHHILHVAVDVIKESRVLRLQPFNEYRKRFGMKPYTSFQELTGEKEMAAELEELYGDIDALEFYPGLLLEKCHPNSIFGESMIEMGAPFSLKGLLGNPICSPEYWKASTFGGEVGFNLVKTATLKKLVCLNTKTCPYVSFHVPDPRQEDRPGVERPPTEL
Briefly: COX Inhibitor Screening Assay Kit, COX-1. Type of data set: biochemical. The source says:
(§1) Fifty percent inhibitory concentration (IC50) means the concentration of test sample necessary for inhibiting PGE2 synthesis by 50% compared to non-inhibitory control sample. It can be also determined by measuring the amount of PGE2 produced by adding test samples to cells having cyclooxygenase activity. COX-1/COX-2 ratio means the ratio of […], and the higher the ratio is, the more specific to COX-2 the agent is.
(§2) To verify the results of Experiment 2, it was investigated that whether the activity of COXs, essential enzymes for PGE2 synthesis system, can be inhibited. […] An experimental system without the test samples was set as control. The residual activity of COX-1 or COX-2 was determined as relative activity versus control.

In data set [2] the target is T2, COX-2 (Homo sapiens, UniProt P35354).
T2 sequence (P35354 18-604): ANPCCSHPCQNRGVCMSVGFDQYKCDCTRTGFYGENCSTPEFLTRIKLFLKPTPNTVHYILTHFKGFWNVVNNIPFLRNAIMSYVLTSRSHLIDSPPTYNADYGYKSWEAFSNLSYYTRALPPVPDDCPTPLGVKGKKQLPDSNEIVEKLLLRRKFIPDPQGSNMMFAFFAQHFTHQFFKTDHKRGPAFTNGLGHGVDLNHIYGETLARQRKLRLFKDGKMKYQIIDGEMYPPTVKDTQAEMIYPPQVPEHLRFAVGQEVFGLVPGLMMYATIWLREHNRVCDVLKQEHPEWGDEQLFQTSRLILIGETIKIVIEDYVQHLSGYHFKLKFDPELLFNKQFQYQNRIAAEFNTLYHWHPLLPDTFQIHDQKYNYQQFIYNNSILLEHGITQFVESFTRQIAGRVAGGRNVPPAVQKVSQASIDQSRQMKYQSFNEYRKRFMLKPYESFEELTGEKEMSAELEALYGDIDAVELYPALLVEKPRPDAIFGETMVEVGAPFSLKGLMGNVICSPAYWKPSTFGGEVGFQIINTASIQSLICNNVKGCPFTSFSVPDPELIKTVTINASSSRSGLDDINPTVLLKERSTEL
Briefly: COX Inhibitor Screening Assay Kit, COX-2. Type of data set: biochemical.
Source text: as §1, §2

Data set [3] relates to Mouse melanoma cell line B16. Briefly: Melanin synthesis in B16 cells. Type of data set: cell-based. The following applies: for Amount of melanin (%): 5 days, per mg protein versus control. As to the method: (§3) As control, a system with no test sample was provided. […] The amount of protein was measured by conventional Bradfordmethod and the amount of melanin per 1 mg of protein was calculated. The amount of melanin (%) was calculated according to Formula 4, and the living cell rate (%) was calculated according to Formula 5.
As control, a system with no test sample was provided. […] The amount of protein was measured by conventional Bradford method and the amount of melanin per 1 mg of protein was calculated. The amount of melanin (%) was calculated according to Formula 4.

For data set [4], the system named is Mouse melanoma cell line B16. Briefly: Living cell rate of B16 cells. As to conditions: 5 days, versus control. As to the method:
as §3

Data set [5] relates to RAW264.7 cells. Briefly: NO production by macrophage RAW264.7, Griess method. The following applies: LPS + IFN-γ, 2 days, relative level versus control. Type of data set: cell-based, mouse. From the text: As macrophage cells, RAW264.7 cell strain from mouse or macrophage cells obtained from laboratory animals such as mouse can be used. The amount of produced NO can be measured by conventional Griess method. […] RAW264.7 cells, a murine macrophage cell strain, were suspended in PRMI1640 medium supplied with 10% (v/v) fetal calf serum (hereinafter abbreviated as “FCS”) to give a cell suspension with a cell concentration of 1×10^6 cells/ml. […] The experimental system without the test samples described above was set as control. […] NO production, PGE2 production and macrophage growth are indicated as relative levels versus controls.
A general note: The Griess reaction detects nitrite, a stable product of nitric oxide.

Data set [6] concerns RAW264.7 cells. Briefly: PGE2 production by macrophage RAW264.7, PGE2-EIA kit. Type of data set: cell-based, mouse. The following applies: LPS + IFN-γ, 2 days, relative level versus control. From the text: (§4) RAW264.7 cells, a murine macrophage cell strain, were suspended in PRMI1640 medium supplied with 10% (v/v) fetal calf serum (hereinafter abbreviated as “FCS”) to give a cell suspension with a cell concentration of 1×10^6 cells/ml. […] The experimental system without the test samples described above was set as control. […] NO production, PGE2 production and macrophage growth are indicated as relative levels versus controls.

Data set [7] has as its system RAW264.7 cells. Briefly: Macrophage growth, living cell count. Type of data set: cell-based, mouse. As to conditions: 2 days, relative level versus control.
Source text: as §4

Data set [8] addresses T2, COX-2. As to conditions: nonsteroidal COX inhibitors, comparison values, source not given; cited from earlier work.
[9] abbreviates: read-out: residual activity of COX-1.
[10] abbreviates: read-out: residual activity of COX-2.

SMILES strings stand for the structures. Where two headings read alike, the source gives them in different places.

One may read the IC50 as the concentration needed to halve the response being measured. As for `Nc1ccccc1O` [2-Aminophenol], the half-inhibitory concentration (IC50) in data set [1] is 28 µM; in data set [2], 27.7 µM. In addition, the figures for the remaining activity at 8 µM in data set [1] (setting [9]) and in data set [2] (setting [10]) were 66% and 72%, respectively. For the same molecule, the remaining activity at 16 µM was 73% in data set [1] (setting [9]) and 60% in data set [2] (setting [10]). Besides, the remaining activity at 32 µM is 42% in data set [1] (setting [9]) and 47% in data set [2] (setting [10]). In data set [2] (ratio of IC50 values of Table 2), the COX-1/COX-2 ratio result is recorded as “about 1”. Further, the “Amount of melanin (%)” value in data set [3] (1 μM) is listed as 62%; in data set [3] (2 μM) it was 55%; in data set [3] (4 μM), 50%. Besides, in data set [3] (in the concentration at which the cell-growth was not inhibited), the “inhibiting effect on melanin production higher than that of kojic acid” value came out at 1.000 fold. The “Living cell rate (%)” value in data set [4] (1 μM) turned out to be 95%; in data set [4] (2 μM), 79%; in data set [4] (4 μM), 52%.

For the molecule `CC(=O)Oc1ccccc1C(=O)O` [AS, aspirin], the “NO production (%)” value in data set [5] (0.16 μM) was found to be 101%; in data set [5] (0.31 μM) it was 102%; in data set [5] (0.63 μM) it was 102%; in data set [5] (1.3 μM), 93%; in data set [5] (2.5 μM) it was 95%; in data set [5] (5.0 μM) it was 90%. The “NO production (%)” value in data set [5] (10 μM) is given as 86%. The “PGE2 production (%)” value in data set [6] (0.16 μM) was determined as 98%; in data set [6] (0.31 μM) it was 99%; in data set [6] (0.63 μM), 79%; in data set [6] (1.3 μM), 47%; in data set [6] (2.5 μM) it was 33%; in data set [6] (5.0 μM), 8%. Also, the “PGE2 production (%)” value in data set [6] (10 μM) came out at 3%. The “Macrophage growth (%)” value in data set [7] (0.16 μM) worked out at 103%; in data set [7] (0.31 μM) it was 100%; in data set [7] (0.63 μM), 95%; in data set [7] (1.3 μM), 85%; in data set [7] (2.5 μM), 86%; in data set [7] (5.0 μM), 89%. In addition, the “Macrophage growth (%)” value in data set [7] (10 μM) amounted to 89%. Further, the COX-1/COX-2 ratio in data set [8] is given as 0.24.

The values above are taken from patent US20100324285A1, “ANTIINFLAMMATORY AGENT COMPRISING 2-AMINOPHENOL OR DERIVATIVE THEREOF AS ACTIVE INGREDIENT” (priority 2006, published 2010).
